Patent US20080220056A1, “Treatment for liver disease” (UNIVERSITY OF SOUTHAMPTON, priority 2002, published 2008)

What was measured:
Assay type in all cases: cell-based
rat hepatocytes = experiment: DNA laddering in rat hepatocytes; conditions: four hours; 50 μmol/L gliotoxin, 200 μmol/L chlorpromazine, 200 μmol/L methapyrilene, 10 ng/mL TNF-α with cycloheximide
Method: Hepatic stellate cells cultured in 35-mm diameter dishes (Greiner) were harvested, pelleted by centrifugation and DNA fragmentation determined as outlined elsewhere (Elsharkawy et al., Hepatology (1999) 30:761-769). Propidium Iodide Flow-Activated Cell Sorting Analysis Detached cells were pelleted by centrifugation, washed in PBS, and resuspended in HYPO buffer (0.1% wt/vol) Na3Citrate and 0.1% (wt/vol) Triton™ X-100 containing […] propidium iodide and incubated for 1 hour. The cells were then analyzed by fluorescence-activated cell sorter (FACS) with a Becton Dickinson (San Jose, Calif.) FACScan instrument using a 488 nm excitation wavelength with a band pass filter set at 530 nm. Attached cells were scraped in HYPO buffer after washing cells with PBS.
DNA laddering was also used to compare the effect of gliotoxin, chlorpromazine, methapyrilene and also the combination of TNF-α with cycloheximide on hepatocytes and hepatic stellate cells.

[1] = tested on: mitochondrial permeability transition in rat hepatic stellate cells; experiment: Confocal microscopy of calcein/TMRM (mitochondrial permeability transition); conditions: 1.5 μmol/L gliotoxin
Method: Intracellular calcium concentrations were examined by preloading activated hepatic stellate cells seeded onto 35-mm diameter dishes with 2.5 μmol/L Fluo-3AM for two hours. Mitochondrial integrity was determined by coloading cells with […] TMRM and 1 μmol/M calcein-AM for three hours. After loading, the culture medium was removed and the cells were washed extensively with confocal buffer (145 mmol/L NaCl, 5 mml/L KCl, 1 mmol/L MgSO4, 1 mmol/L NaH2PO4, 10 mmol/L HEPES, 25 mmol/L glucose, 1 mmol/L CaCl2 and 2 mg/mL bovine serum albumin, pH 7.4) and incubated at 37° C. in 2 mL confocal buffer containing 1.5 μmol/L gliotoxin or DMSO vehicle control.
Fluorescence images were collected at 1 μm intervals using an Olympus BX50WI microscope fitted with the Biorad microradiance confocal scanning system.
Fluo-3 and calcein fluorescence were excited at 488 nm and collected at 515-530 nm using a band width filter. TMRM was excited at 543 nm and collected at wavelengths greater than 570 nm.
Culture activated rat hepatic cells (14 day) were loaded with calcein (green fluorescence) and TMRM (red fluorescence) and then treated with either 0.05% (vol/vol) DMSO vehicle or alternatively 1.5 μmol/L gliotoxin. Green fluorescence and red fluorescence were imaged at regular time points as outlined in Materials and Methods and the results obtained were typical for at least three separate experiments.

[2] = tested on: rat hepatic stellate cells; experiment: Hepatic stellate cell apoptosis by acridine orange staining and counting (cycloheximide or serum deprivation), rat cells
Method: Human hepatic stellate cells were extracted from the margins of normal human liver resected for colonic metastatic disease as previously described (Iredale et al., Clin. Sci., (1995) 89: 75-81). Rat hepatic stellate cells were extracted from normal rat liver by Pronase and collagenase digestion and purified by centrifugal elutriation as described (Arthur et al., J. Clin. Invest., (1989) 84:1076-1085). Extracted hepatic stellate cells were cultured on plastic until they were activated to a myofibroblastic phenotype after 7 to 10 days. Human and rat hepatic stellate cells were used for experiments after activation in primary culture or before fourth passage. Cells were cultured in Dulbecco's modified Eagle's medium in the presence of 16% fetal calf serum and antibiotics.
(§1) Apoptosis of hepatic stellate cells was induced by absolute serum deprivation, cycloheximide treatment (Issa et al., Gut (2001) 48: S48-S57), or exposure to nerve growth factor as previously described (Trim et al., Am. J. Pathol., (2000) 156, 1235-1243). Hepatic stellate cells were cultured in 24-well tissue culture plates. Rat and human hepatic stellate cells were exposed to proapoptotic stimuli with and without recombinant TIMP-1 (Biogenesis, Poole, UK) and other manipulations as detailed below. Following a 4 hour incubation at 37° C., nuclear morphology was assessed by adding acridine orange to each well (final concentration 1 μg/ml) and observing the cells under blue fluorescence. The total number of apoptotic bodies was counted, and any apoptotic bodies floating in the supernatant were included by racking up the objective lens. The total number of cells per field was counted, and an apoptotic index was calculated. Each condition was performed in duplicate, and three high power fields were counted for each well. […] To examine for autocrine effects, hepatic stellate cells were incubated for 18 hours with azide-free polyclonal neutralizing antibodies to TIMP-1 and a nonimmune IgG control (Santa Cruz Biotechnology, Inc., Santa Cruz, Calif.), and responses were assessed by acridine orange staining and counting.
Apoptosis was assessed by acridine orange staining. […] A normal cell lies adjacent to the apoptotic body. This technique was used to determine the percentage of apoptotic hepatic stellate cells following exposure to cyclohexamide in the presence or absence of TIMP-1. Hepatic stellate cells were exposed to 50 μM cyclohexamide and 0, 1, 10, 100 or 200 ng/ml of TIMP-1. Cells treated with serum alone were used as controls. […] Bovine serum albumin, used as a carrier for the TIMP-1 had no antiapoptotic effect.

hepatic stellate cells = experiment: Nerve growth factor induced apoptosis of hepatic stellate cells; conditions: NGF 100 ng/ml, serum-free; TIMP-1 142.5 ng/ml
Method: as §1, with “counting. […]” for “counting.”

CN1C(=O)[C@]23CC4=CC=C[C@H](O)[C@H]4N2C(=O)[C@@]1(CO)SS3 [gliotoxin]
cleavage of hepatocyte DNA to a nucleosomal ladder (rat hepatocytes): only hepatocytes treated with TNF-α and cycloheximide cleaved their DNA to a nucleosomal ladder | TMRM fluorescence (mitochondrial permeability) [1]: loss of TMRM fluorescence at four hours

TIMP-1: recombinant tissue inhibitor of matrix metalloproteases 1 (Biogenesis)
apoptosis induced by cycloheximide (acridine orange) ([2]; 50 μM cycloheximide, 4 hours, TIMP-1 1-200 ng/ml): significantly reduces apoptosis of activated hepatic stellate cells induced by cycloheximide exposure in a dose-dependent manner | apoptosis in serum-free conditions (acridine orange) ([2]; 24 hour incubation in serum-free conditions): identical effect | reduction in apoptotic morphology by acridine orange staining and counting ([2]; TIMP-1 10 ng/ml, cycloheximide): 30% | reduction in apoptosis by acridine orange staining and counting ([2]; TIMP-1 100 ng/ml, cycloheximide): 50% | apoptosis induced by cycloheximide (acridine orange) ([2]; rat HSC, protein at 142.5 ng/ml): inhibited apoptosis induced by cycloheximide exposure | apoptosis induced by exposure to NGF (hepatic stellate cells): significantly inhibited
